Holding throughout (format): cell-based
Test [1] concerns Aggrecan. The test can be described thus: Gene expression in human chondrocyte cells (SW1353), quantitative real-time PCR. On the procedure:
(§1) The cells were treated with IL-1β, which is one of the natural mediators that induce cartilage breakdown and is detected in substantial amounts in osteoarthritic cartilage tissues and cells derived thereof. Treatment of cells with IL-1β triggers the expression of genes that are involved in catabolic events, such as MMPs. Also, treatment of the cells with IL-1β reduces the collagen expression levels (compared to untreated cells)
(§2) Chondrocytes (SW1353; purchased from the […] [ATCC]) were grown in cell culture medium according to the instructions from ATCC. For experimental treatments, cells were seeded into 6-well plates and cultured for two days until they reached confluence. Total cellular RNA was extracted from cultured cells and reverse-transcribed as described by Richard et al. Mol. Nutr. Food Res. 49, 431-442, 2005. Expression levels of distinct genes were determined by quantitative real-time PCR as described in Richard et al. Mol. Nutr. Food Res. 49, 431-442, 2005.

In test [2] the test system is Human MMP-13. Described as above. How it is done: as §1, §2
The subject of test [3] is Human MMP-1. Described as above. How it is done:
as §1, §2

Test [4] concerns Human MMP-3. The test is described as above. How it is done: as §1, §2
Test [5] relates to Human collagen II. Described as above. On the procedure:
as §1, §2

Test [6] concerns human collagen 1. The test is described as above. On the procedure:
as §1, §2

For test [7], the system named is psoriasin (S100 calcium-binding protein A7). The experiment in a line: Gene expression in cytokine-stimulated keratinocytes, quantitative real time PCR. The settings on record: for Psoriasin gene expression (in % of stimulated cells): keratinocytes, cytokine mix 24 hrs. On the procedure: (§3) Keratinocytes were cultured in standard medium (SFM, invitrogen #1 7005075) until they reached confluence. Culture medium was then changed to assay medium (SFM without epidermal growth factor and pituary extract) and pre-incubated with the test compound for 2 hrs. In order to stimulate the cells, a cytokine mix (see Boniface et al. J. Immunol. 178, 4615-4622, 2007) was added and the cells were cultured for 24 hrs. At the end of the experiment, cells were washed; total RNA was extracted using Trizol reagents (Sigma T9424). The expression levels of specific genes (cytokeratin 10, β-defensin (defensin-β4) and psoriasin (or S100 calcium-binding protein A7) was performed by quantitative real time PCR, using the procedure described in other examples.
A general note: In qPCR the cycle at which signal appears reflects the starting amount.

The subject of test [8] is β-defensin (defensin-β4). The description is as above. The settings on record: for β-defensin gene expression (in % of stimulated cells): keratinocytes, cytokine mix 24 hrs. On the procedure:
as §3

Setting [9] is: cytokine-stimulated keratinocytes.

As for `COc1c(C(C)C)cc2c(c1O)[C@@]1(C(=O)O)CCCC(C)(C)[C@@H]1CC2` [Carnosic acid-12-methyl ether (I), (4aR,10aS)-carnosic acid 12-methyl ether], the “Effect on expression of aggrecan (in words)” value in test [1] is “stimulated the expression”. The “Effect on expression of MMP-13 (in words)” value in test [2] is listed as “drastically reduced the expression”. In addition, the “Effect on expression of MMP-1 (in words)” value in test [3] is listed as “drastically reduced the expression”. For the same molecule, the “Effect on expression of MMP-3 (in words)” value in test [4] is listed as “drastically reduced the expression”. Further, the “Effect on expression of human collagen 11 (in words)” value in test [5] is listed as “stimulated the expression”. Also, the “Effect on expression of human collagen 1 (in words)” value in test [6] is on record as “stimulated the expression”. The “Psoriasin gene expression (in % of stimulated cells)” value is 46 % of stimulated cells in test [7] (0.1 μmol/L), 58 % of stimulated cells in test [7] (1.0 μmol/L) and 62 % of stimulated cells in test [7] (5.0 μmol/L). The “Effect on psoriasin expression (in words)” value in test [7] (setting [9]) was “dose-dependently reduced the expression”. Also, the “β-defensin gene expression (in % of stimulated cells)” value in test [8] (0.1 μmol/L) was 49 % of stimulated cells; in test [8] (1.0 μmol/L), 47 % of stimulated cells; in test [8] (5.0 μmol/L), 28 % of stimulated cells. Moreover, the “Effect on β-defensin expression (in words)” value in test [8] (setting [9]) is given as “dose-dependently reduced the expression”.

(Values after patent US8680147B2, “Compositions” (DSM IP Assets B.V., priority 2006, dated 2014).)
